Experimental data reported in ChEMBL document CHEMBL1146711, “A facile synthesis of 1-ethoxy-4-cyano-5-ethoxycarbonyl-3H-azuleno[1,2-c]pyran-3-one, a selective 15-lipoxygenase inhibitor” (Bioorg Med Chem Lett, 2004).

Key:
[1] = molecular target: T1, Polyunsaturated fatty acid 5-lipoxygenase (Homo sapiens) (UniProt P09917); experiment: Inhibitory concentration against 5-lipoxygenase was determined; No inhibition
T1 sequence (whole entry): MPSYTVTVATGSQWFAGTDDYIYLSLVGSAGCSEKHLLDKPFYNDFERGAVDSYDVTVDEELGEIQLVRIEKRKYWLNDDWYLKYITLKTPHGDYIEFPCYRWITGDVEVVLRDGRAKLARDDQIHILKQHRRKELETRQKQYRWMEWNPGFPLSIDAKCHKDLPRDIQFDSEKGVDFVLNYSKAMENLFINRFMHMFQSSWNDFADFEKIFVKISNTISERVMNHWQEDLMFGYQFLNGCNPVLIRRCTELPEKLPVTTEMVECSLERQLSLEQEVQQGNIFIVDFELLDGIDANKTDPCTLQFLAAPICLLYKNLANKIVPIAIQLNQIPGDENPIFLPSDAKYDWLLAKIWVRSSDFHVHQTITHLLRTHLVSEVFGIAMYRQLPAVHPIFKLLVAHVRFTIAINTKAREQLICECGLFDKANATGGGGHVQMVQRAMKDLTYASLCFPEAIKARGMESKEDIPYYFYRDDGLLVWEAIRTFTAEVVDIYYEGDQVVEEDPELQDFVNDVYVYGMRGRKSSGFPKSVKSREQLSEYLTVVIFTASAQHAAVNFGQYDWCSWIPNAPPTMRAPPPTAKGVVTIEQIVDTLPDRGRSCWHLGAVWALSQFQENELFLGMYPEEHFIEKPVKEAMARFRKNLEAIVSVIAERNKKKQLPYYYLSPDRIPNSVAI

[2] = Inhibitory concentration against lipid peroxidase was determined; No inhibition
[3] = molecular target: Phospholipase A2, major isoenzyme (Sus scrofa) (UniProt P00592); experiment: Inhibitory concentration against phospholipase A2; No inhibition
[4] = molecular target: Protein kinase C (PKC) (Homo sapiens) (UniProt O94806+P41743+P17252+P05129+Q05655+P05771+Q05513+Q02156+P24723+Q15139+Q04759); experiment: Inhibition of protein kinase C (No inhibition); assay type: protein assay
[5] = molecular target: Cyclooxygenase (Homo sapiens) (UniProt P35354+P23219); experiment: Inhibitory concentration against prostaglandin G/H synthase; No inhibition; assay type: protein assay

Measured: Activity

Chain of Phospholipase A2, major isoenzyme (Sus scrofa) (P00592 23-146 limits assumed): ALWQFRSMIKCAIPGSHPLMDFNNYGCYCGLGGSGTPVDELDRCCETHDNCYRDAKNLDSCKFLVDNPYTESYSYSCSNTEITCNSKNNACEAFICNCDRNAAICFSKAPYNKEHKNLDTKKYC

CCOC(=O)c1c2cccccc-2c2c(OCC)oc(=O)c(C#N)c12
> 300 µM: all assays above

O=C1CCN(c2ccccc2)N1
> 300 µM: [3] | [4] | [5]
